ChEMBL document CHEMBL3046091, “Synthesis and antimicrobial activities of 2-azetidinyl-4-quinazolinone derivatives of diclofenac analogue” (2011)

Tests used:
Type in all cases: functional
[1] = tested on: Escherichia coli; test: Antibacterial activity against Escherichia coli ATCC 25922 at 50 to 100 ug/ml by cup-plate method
[2] = tested on: Bacillus subtilis; test: Antibacterial activity against Bacillus subtilis ATCC 6633 at 50 to 100 ug/ml by cup-plate method
[3] = tested on: Staphylococcus aureus; test: Antibacterial activity against Staphylococcus aureus ATCC 9144 at 50 to 100 ug/ml by cup-plate method
[4] = tested on: Candida albicans; test: Antifungal activity against Candida albicans ATCC 10231 at 50 ug/ml by cup-plate method; details: read-out: IZ
[5] = tested on: Bacillus subtilis; test: Antibacterial activity against Bacillus subtilis ATCC 6633 at 50 ug/ml by cup-plate method; details: read-out: IZ
[6] = tested on: Pseudomonas aeruginosa; test: Antibacterial activity against Pseudomonas aeruginosa ATCC 9027 at 50 to 100 ug/ml by cup-plate method
[7] = tested on: Staphylococcus aureus; test: Antibacterial activity against Staphylococcus aureus ATCC 9144 at 50 ug/ml by cup-plate method; details: read-out: IZ
[8] = tested on: Escherichia coli; test: Antibacterial activity against Escherichia coli ATCC 25922 at 100 ug/ml by cup-plate method; details: read-out: IZ
[9] = tested on: Pseudomonas aeruginosa; test: Antibacterial activity against Pseudomonas aeruginosa ATCC 9027 at 100 ug/ml by cup-plate method; details: read-out: IZ
[10] = tested on: Bacillus subtilis; test: Antibacterial activity against Bacillus subtilis ATCC 6633 at 100 ug/ml by cup-plate method; details: read-out: IZ
[11] = tested on: Escherichia coli; test: Antibacterial activity against Escherichia coli ATCC 25922 at 50 ug/ml by cup-plate method; details: read-out: IZ
[12] = tested on: Candida albicans; test: Antifungal activity against Candida albicans ATCC 10231 at 100 ug/ml by cup-plate method; details: read-out: IZ
[13] = tested on: Pseudomonas aeruginosa; test: Antibacterial activity against Pseudomonas aeruginosa ATCC 9027 at 50 ug/ml by cup-plate method; details: read-out: IZ
[14] = tested on: Staphylococcus aureus; test: Antibacterial activity against Staphylococcus aureus ATCC 9144 at 100 ug/ml by cup-plate method; details: read-out: IZ

| Compound | Activity [1] [%] | Activity [2] [%] | Activity [3] [%] | zone of inhibition at 50 µg/mL [4] [mm] | zone of inhibition at 50 µg/mL [5] [mm] | Activity [6] [%] | zone of inhibition at 50 µg/mL [7] [mm] | zone of inhibition at 100 µg/mL [8] [mm] | zone of inhibition at 100 µg/mL [9] [mm] | zone of inhibition at 100 µg/mL [10] [mm] | zone of inhibition at 50 µg/mL [11] [mm] | zone of inhibition at 100 µg/mL [12] [mm] | zone of inhibition at 50 µg/mL [13] [mm] | zone of inhibition at 100 µg/mL [14] [mm] |
| --- | --- | --- | --- | --- | --- | --- | --- | --- | --- | --- | --- | --- | --- | --- |
| O=C1C(Cl)C(c2cccc([N+](=O)[O-])c2)N1c1ccc(-n2c(Cc3ccccc3Nc3c(Cl)cccc3Cl)nc3ccc(Br)cc3c2=O)cc1 (stereo unspecified) | 32.65 | 32.65 | 29.73 | 1 | 2 | 36.75 | 1 | 4 | 4 | 4 | 2 | 2 | 2 | 3 |
| CCN(CC)c1ccc(C2C(Cl)C(=O)N2c2ccc(-n3c(Cc4ccccc4Nc4c(Cl)cccc4Cl)nc4ccc(Br)cc4c3=O)cc2)c(O)c1 (stereo unspecified) | 0 | 0 | 0 | 0 | 0 | 0 | 0 | 0 | 0 | 0 | 0 | 0 | 0 | 0 |
| CCN(CC)c1ccc(/C=N/c2ccc(-n3c(Cc4ccccc4Nc4c(Cl)cccc4Cl)nc4ccc(Br)cc4c3=O)cc2)c(O)c1 | 0 | 0 | 0 | 0 | 0 | 0 | 0 | 0 | 0 | 0 | 0 | 0 | 0 | 0 |
| O=C1C(Cl)C(c2ccccc2[N+](=O)[O-])N1c1ccc(-n2c(Cc3ccccc3Nc3c(Cl)cccc3Cl)nc3ccc(Br)cc3c2=O)cc1 (stereo unspecified) | 37.56 | 42.68 | 36.75 | 1 | 3 | 46.93 | 2 | 5 | 6 | 6 | 3 | 2 | 3 | 4 |
| O=C1C(Cl)C(c2ccccc2O)N1c1ccc(-n2c(Cc3ccccc3Nc3c(Cl)cccc3Cl)nc3ccc(Br)cc3c2=O)cc1 (stereo unspecified) | 43.53 | 42.68 | 50.98 | 0 | 3 | 50 | 3 | 6 | 6 | 6 | 3 | 0 | 4 | 6 |
| O=C1C(Cl)C(c2ccc(O)cc2)N1c1ccc(-n2c(Cc3ccccc3Nc3c(Cl)cccc3Cl)nc3ccc(Br)cc3c2=O)cc1 (stereo unspecified) | 37.89 | 35.08 | 44.44 | 0 | 3 | 58.33 | 3 | 5 | 7 | 5 | 2 | 0 | 4 | 5 |
| O=C1C(Cl)C(c2ccccc2Cl)N1c1ccc(-n2c(Cc3ccccc3Nc3c(Cl)cccc3Cl)nc3ccc(Br)cc3c2=O)cc1 (stereo unspecified) | 44.56 | 41.48 | 65.76 | 2 | 3 | 58.33 | 4 | 6 | 7 | 6 | 3 | 3 | 4 | 8 |
| O=C1C(Cl)C(c2ccc(Cl)cc2)N1c1ccc(-n2c(Cc3ccccc3Nc3c(Cl)cccc3Cl)nc3ccc(Br)cc3c2=O)cc1 (stereo unspecified) | 51.09 | 57.44 | 66.67 | 2 | 5 | 61.79 | 5 | 7 | 8 | 8 | 3 | 5 | 5 | 8 |
| COc1ccc(C2C(Cl)C(=O)N2c2ccc(-n3c(Cc4ccccc4Nc4c(Cl)cccc4Cl)nc4ccc(Br)cc4c3=O)cc2)cc1 (stereo unspecified) | 53.33 | 57.14 | 60.94 | 2 | 4 | 65.76 | 4 | 8 | 8 | 8 | 4 | 4 | 4 | 8 |
| COc1cc(C2C(Cl)C(=O)N2c2ccc(-n3c(Cc4ccccc4Nc4c(Cl)cccc4Cl)nc4ccc(Br)cc4c3=O)cc2)cc(OC)c1OC (stereo unspecified) | 50 | 46.48 | 58.33 | 1 | 5 | 58.33 | 4 | 7 | 7 | 7 | 3 | 2 | 4 | 7 |
| COc1ccc(C2C(Cl)C(=O)N2c2ccc(-n3c(Cc4ccccc4Nc4c(Cl)cccc4Cl)nc4ccc(Br)cc4c3=O)cc2)c(O)c1 (stereo unspecified) | 50 | 44.69 | 58.33 | 0 | 4 | 50.98 | 4 | 7 | 6 | 7 | 4 | 1 | 3 | 7 |
| CN(C)c1ccc(C2C(Cl)C(=O)N2c2ccc(-n3c(Cc4ccccc4Nc4c(Cl)cccc4Cl)nc4ccc(Br)cc4c3=O)cc2)cc1 (stereo unspecified) | 0 | 0 | 0 | 0 | 0 | 0 | 0 | 0 | 0 | 0 | 0 | 1 | 0 | 0 |
| COc1ccc(/C=N/c2ccc(-n3c(Cc4ccccc4Nc4c(Cl)cccc4Cl)nc4ccc(Br)cc4c3=O)cc2)c(O)c1 | 42.86 | 47.81 | 50 | 0 | 4 | 38.83 | 4 | 6 | 4 | 7 | 4 | 0 | 2 | 6 |
| CN(C)c1ccc(/C=N/c2ccc(-n3c(Cc4ccccc4Nc4c(Cl)cccc4Cl)nc4ccc(Br)cc4c3=O)cc2)cc1 | 0 | 0 | 0 | 0 | 0 | 0 | 0 | 0 | 0 | 0 | 0 | 1 | 0 | 0 |
| C[C@@H]1[C@H](O)[C@@H](C)/C=C/C=C/C=C/C=C/C=C/C=C/C=C/[C@H](O[C@@H]2O[C@H](C)[C@@H](O)[C@H](N)[C@@H]2O)C[C@@H]2O[C@](O)(C[C@@H](O)C[C@@H](O)[C@H](O)CC[C@@H](O)C[C@@H](O)CC(=O)O[C@H]1C)C[C@H](O)[C@H]2C(=O)O [AMPHOTERICIN B] |  |  |  | 4 |  |  |  |  |  |  |  | 9 |  |  |
| CC1(C)S[C@@H]2[C@H](NC(=O)Cc3ccccc3)C(=O)N2[C@H]1C(=O)O [PENICILLIN G] |  |  |  |  | 7 |  | 6 | 14 | 12 | 14 | 7 |  | 6 | 12 |
